Experimental data reported in PMC8911944, “Screening of Natural Products Inhibitors of SARS-CoV-2 Entry” (Molecules, 2022).

The compounds below were run on pseudotyped HIV-1 with the D614G SARS-CoV-2 spike glycoprotein.
Type: cell-based

Going from `C/C=C/[C@H]1OC(=O)C=C[C@H]1OC(C)=O` [Acetylphomolactone] to `CC(=O)OC1C=CC(=O)OC1C1OC1C` (stereo not drawn) [Asperline], the “Antiviral Activity (% of Inhibition)” value falls from −0.65 ± 6.16% to −15.48 ± 8.34%.

Going from `CC(O)[C@@H]1NC(=O)c2cccn2C1=O` (stereo partly drawn) [Macrophominol] to `CC1=C[C@H](O)[C@H]2C[C@@H]1C2(C)C` (relative stereo) [cis-Verbenol], the “Antiviral Activity (% of Inhibition)” value falls from −91.39 ± 26.65% to −171.26 ± 32.54%.

Going from S-Limonene to `C=C1CC[C@H]2O[C@]2(C)CC[C@@H]2[C@@H]1CC2(C)C` [Caryophyllene Oxide], the “Antiviral Activity (% of Inhibition)” value rises from −62.63 ± 22.17% to 43.82 ± 6.31%.

First: C=C(C)[C@H]1CC=C(C)CC1 [R-Limonene]
Second: CC(=O)C1COC(O)C1C (stereo not drawn) [Botryodiplodin]
The “Antiviral Activity (% of Inhibition)” value of the first is higher: −27.90 ± 16.41% for the first, −88.21 ± 12.51% for the second.

Going from `C/C=C/c1ccc(OC)cc1` [Trans-anethole] to `C[C@H]1CC[C@@H](C(C)(C)O)CC2=C1CC[C@@H]2C` [Guaiol], the “Antiviral Activity (% of Inhibition)” value falls from 5.02 ± 0.71% to −60.20 ± 8.02%.

For Isoasperline, the “Antiviral Activity (% of Inhibition)” value was −19.82 ± 10.21%.

`C=C1CC/C=C(\C)CC[C@@H]2[C@@H]1CC2(C)C` [β-Caryophyllene] was tested, and the “IC50 (50% inhibitory concentration)” value was 98.5.
